Data reported in US20140248221A1, “COMPOSITIONS FOR ORAL USE AND METHODS FOR TREATING THE ORAL MUCOSA, LIPS, AND PERIORAL REGIONS” (JR CHEM, LLC, priority 2011, published 2014).

Experiment: zone of inhibition activity
Assay type: cell-based
Conditions: compared with zn bacitracin

For Cu-zn bacitrate, the “zone of inhibition activity” value was “greater zone of inhibition activity than zn bacitracin”.
